Data on three compounds can be found in patent publication US12186283B2, “Bismuth-thiol compositions and methods of use” (Microbion Corporation, priority 2018, dated 2025).

For data set [1], the system named is anaerobes (Bacteroides fragilis and Clostridium difficile). Put plainly: Agar dilution MIC (Example 11), group statement. It is filed as cell-based. The conditions noted are these: B. fragilis and C. difficile QC isolates, C. difficile ribotypes incl. 027. The method, then: The test agents were stored at room temperature until assayed. All test agents were suspended and diluted in 100% dimethylsulfoxide (DMSO), and were ultimately tested at a final concentration of 0.06-64 μg/mL.
The susceptibility of anaerobic bacteria was determined by agar dilution using Brucella Agar (BD/BBL; Lot No. 5237692) supplemented with 5 μg/mL hemin (Sigma, St. Louis, MO; Lot No. 108K1088), 1 μg/mL Vitamin K1 and 5% (v/v) laked sheep blood (Cleveland Scientific, Bath, OH; Lot No. 322799).
MIC values for anaerobic bacteria were determined using a reference agar dilution method as described by CLSI (6). Organisms were grown at 35° C. in the Bactron II Anaerobic Chamber (Shel Lab, Cornelius, OR) for approximately 48 hr prior to the assay. Drug dilutions and drug-supplemented agar plates were prepared manually per CLSI (6). The plates were allowed to stand at room temperature for 1 hr to allow the agar surface to dry and pre-reduced for approximately 1 hr in the anaerobe chamber prior to inoculation. Each isolate was suspended to the equivalent of a 0.5 McFarland standard in Brucella broth using a turbidity meter (Dade Behring MicroScan, West Sacramento, CA). Each bacterial cell suspension was then diluted 1:10 in Brucella broth and transferred to wells in a stainless steel replicator block which was used to inoculate the test plates. […] The MIC was read per CLSI guidelines (6).
On the technique in general: In agar dilution, organisms are placed on agar that contains the substance at set levels.

Data set [2] concerns Burkholderia spp. (B. cepacia complex). Put plainly: MIC against CF isolates (Example 5). The format is cell-based. Conditions: Table 4A; strain AU197, B. cenocepacia (B cepacia complex).
Data set [3] in a line: Particle size distribution of BisEDT microparticles. The format is physicochemical. The conditions noted are these: microparticles resuspended in 2% poloxamer 188, Nanosizer/Zetasizer Nano-S. The method, then:
The dried particulate matter was characterized to assess the particle size properties. Briefly, microparticles were resuspended in 2% poloxamer 188 (Pluronic® F-68) (BASF, Mt. Olive, NJ) and the suspension was sonicated for 10 minutes in a water bath sonicator at standard setting prior to analysis using a Nanosizer/Zetasizer Nano-S particle analyzer (model ZEN1600 (without zeta-potential measuring capacity), Malvern Instruments, Worcestershire, UK) according to the manufacturer's recommendations.
It was observed that careful control of the reaction temperature and the rate of 1,2 ethanedithiol addition had pronounced impact on the BisEDT particle size distribution.

For the next data set, the system named is P. aeruginosa. The conditions noted are these: control strain ATCC 27853 P. aeruginosa; cited from earlier work.
Data set [4] in a line: Hematology after face-mask inhalation in beagle dogs. It is filed as in vivo. The conditions noted are these: inhalation Day 0 and 7, animal and Avg lines, samplings not labelled. How it is done: The objective of the study is to determine the maximum tolerated dose (MTD) or maximum feasible dose (MFD) of inhaled bismuth ethanedithiol (BisEDT) after face-mask inhalation exposure (up to 60 min of exposure) in male and female beagle dogs. Animals will be monitored for up to 14 days following the first day of exposure and blood will be collected at predetermined timepoints to analyze the pharmacokinetics of BisEDT. In addition, a coagulation panel will be conducted prior to necropsy. At the conclusion of the study animals will be euthanized and undergo necropsy during which the respiratory tract will be harvested for bioanalytical and histopathological analysis. Results obtained will inform a follow up repeated dose GLP study. This test article is currently being developed as a novel formulation of a broad spectrum antimicrobial/antibiofilm agent, indicated for the treatment of lung infections in patients with cystic fibrosis.
Once adequately conditioned to the restraint device and face-masks, the animals are individually exposed to the test article aerosols. Animals receive a single face-mask inhalation exposure in a ramp study design to test article aerosols for up to 60 min. Animal observations during and post exposure determine the tolerance of inhaled BisEDT aerosols.
Group 1 (vehicle) are exposed to a vehicle atmosphere for 30 minutes. Group 2 (50 μg/kg) are exposed to BisEDT for 30 minutes. Target concentrations and exposure durations for Groups 3-5 are based on the presence of any toxicity via clinical observations or gross necropsy findings. In each of Groups 3-5, if no adverse clinical signs of toxicity are observed, the next groups' exposure will be conducted at a higher target dose. If adverse clinical signs of toxicity are observed, the next groups' exposure will be conducted at a lower target dose. This approach is repeated for all BisEDT doses. The final documented exposure duration is the maximum tolerated dose or the maximum feasible dose.
Blood are collected for pharmacokinetic (PK) analysis prior to exposure, then at 4 hr (±5 min) post exposure, and again on Day 1, Day 2, Day 7 (pre- and 4 hr (±5 min)-post exposure), Day 8, Day 9, Day 10, Day 11, Day 12, Day 13, and Day 14. A total of 0.25 mL is collected at each timepoint. No PK blood is collected from the vehicle control (Group 1) animals; only animals exposed to BisEDT have blood collected for PK analysis. Collected samples are flash frozen without processing for shipment to Medpace for bioanalytical analysis. Additional blood is collected from all animals in all groups for hematology (1 mL) and clinical chemistry (1 mL) at baseline, Day 7 (pre-exposure), and again at euthanasia. Blood (2-2 mL) is collected from all animals at necropsy for coagulation analysis (d-Dimer, fibrinogen, PT, and PTT).
For hematology analyses, whole blood (1 ml) will be collected with vacutainers containing K3EDTA as an anticoagulant.
Hematology samples are analyzed by automated (ADVIA™ 120 Hematology System, Siemens Medical Solutions Diagnostics, Tarrytown, NY) analyses. Disposition will be recorded on the sample processing form.

The subject of a further data set is Escherichia coli. Put plainly: Broth microdilution MIC (Example 12). On the technique in general: Broth dilution looks for growth in wells or tubes with falling amounts of substance.
Setting [5] is: dogs Group 2 (target 50 μg/kg; lung deposited 55-56 ug/kg).

The structures appear in SMILES notation. Values after ≈ are worked out from the molar mass of the structure shown. Values joined by “and” are separate entries in the source; they are usually repeats but may differ in a detail not shown here. Identical values can stand only once.

`CC(S)C(C)S.[Bi]` (stereo not drawn) [BisBDT, bismuth-2,3-butanedithiol]: the “MIC values (range across isolates)” value in data set [1] was 1 to 4 µg/mL. Besides, in data set [2], the MIC (in general, the least concentration at which growth counts as inhibited) worked out at 4 µg/mL.
As for `C1C[S][Bi]([S]CC[S][Bi]2[S]CC[S]2)[S]1` [BisEDT, bismuth-1,2-ethanedithiol], the “peak VMD” value in data set [3] is listed as “about 1.3 microns”. Besides, in the data set on P. aeruginosa, the “Expected MIC: acceptable range” value was 0.5 to 4 µg/mL and the “Expected MIC: goal” value is 1 to 2 µg/mL. Besides, in data set [4] (setting [5]), the HGB is 15.6 g/dL and 15.0 g/dL and 14.2 g/dL and 16.4 g/dL and 14.3 g/dL; the LUC is 0.01 ^3/uL and 0.02 ^3/uL; the MCH is 22.8 pg and 23.2 pg and 22.7 pg and 22.3 pg and 21.9 pg; the MCHC was 34.1 g/dL and 34.9 g/dL and 33.4 g/dL and 34.4 g/dL and 33.2 g/dL. For the same compound, the MONO in data set [4] (setting [5]) is 0.63 ^3/uL and 0.67 ^3/uL and 0.53 ^3/uL and 0.50 ^3/uL and 0.51 ^3/uL. Moreover, the LUC in data set [4] (dogs Group 4 (lung deposited 176-197 ug/kg)) was 0.01 ^3/uL and 0.02 ^3/uL.
In the case of `C[C@@H](O)[C@H]1C(=O)N2C(C(=O)O)=C(S[C@@H]3CN[C@H](C(=O)N(C)C)C3)[C@H](C)[C@H]12` [MEM], the MIC in the data set with Escherichia coli (E. coli ATCC 25922, QC organism) was at most 0.008 µg/mL; in the data set on Escherichia coli (E. coli ATCC 35218, QC organism), at most 0.008 µg/mL; against Escherichia coli (Escherichia coli ATCC 35218, ESBL), at most 0.008 µg/mL; in the data set with Escherichia coli (Escherichia coli ATCC BAA-2471, NDM) it was over 8 µg/mL; against Escherichia coli (Escherichia coli CDC 114, ESBL/KPC), 2 µg/mL (≈ 5.22 µM); in the data set on Escherichia coli (Escherichia coli CDC 118, ESBL/NDM), 0.06 µg/mL (≈ 0.156 µM). For the same compound, the MIC was over 8 µg/mL against Escherichia coli (Escherichia coli CDC 435, NDM); 1 µg/mL (≈ 2.61 µM) in the data set on Escherichia coli (Escherichia coli CDC 451, KPC); 8 µg/mL (≈ 20.9 µM) in the data set with Escherichia coli (Escherichia coli CDC 503, ESBL/NDM); 2 µg/mL (≈ 5.22 µM) against Escherichia coli (Escherichia coli MMX 5745, KPC); 0.015 µg/mL (≈ 0.0391 µM) against Escherichia coli (Escherichia coli MMX 5755, ESBL); at most 0.008 µg/mL in the data set on Escherichia coli (Escherichia coli MMX 5756, ESBL). The compound further showed an MIC in the data set on Escherichia coli (Escherichia coli MMX 5758, ESBL) of at most 0.008 µg/mL.
